The text below walks through data of US4472409A, “2-Pyridylmethyl thio(sulfinyl)benzimidazoles with gastric acid secretion inhibiting effects” (Byk Gulden Lomberg Chemische Fabrik Gesellschaft mit …, priority 1981, dated 1984).

Assay [1] relates to gastric secretion (HCl-secretion of the rat stomach). The assay is described as follows: Gastric secretion inhibition (HCl-secretion over 4 hours) in the Shay rat. Format: in vivo. Conditions: for Gastric secretion (rat), inhibition in % of HCl-secretion: 4 hours; for Gastric secretion (rat), ED25 / ED25: dose reducing HCl secretion (sum 4 hours) by 25% vs control; for ED25 / ED50: Rattus norvegicus, po. On the procedure:
(§1) The antiulcerogenic action was tested in accordance with the method using the so-called Shay rat: Rats (female, 180 to 200 g, 4 animals per cage on a high grid) which had been fasted for 24 hours were subjected to ulcer provocation by pylorus ligature (under diethyl ether anaesthesia) and oral administration of 100 mg/10 ml/kg of acetylsalicyclic acid. The substances to be tested are administered orally (10 ml/kg) 1 hour before the pylorus ligature. The wound is closed by means of Michel clamps. 4 hours thereafter, the animals are killed under ether anaesthesia by atlas dislocation, and the stomach is removed. The stomach is opened longitudinally and fixed to a cork tile after the amount of gastric juice secreted [volume, and its hydrochloric acid content (titration with sodium hydroxide solution)] has been determined, the number and size (=diameter) of ulcers present are determined with a stereomicroscope with 10-fold magnification. The product of the degree of severity (according to the following rating scale) and the number of ulcers serves as the individual ulcer index. The reduction in the average ulcer index of each treated group compared with that of the control group (=100%) serves as a measure of the antiulcerogenic effect. The ED25 and the ED50 designate the doses which reduce the average ulcer index and the gastric secretion by 25 and 50%.

For assay [2], the system named is gastric ulcers provoked by a pylorus ligature (Shay rat). The experiment in a line: Protective action on the stomach: antiulcerogenic test in the Shay rat (pylorus ligature + oral 100 mg/kg acetylsalicylic acid), reduction of ulcer index. The settings on record: for Protective action on the stomach (rat), reduction in the ulcer index: 1 hour before pylorus ligature; for Protective action on the stomach (rat), ED25 / ED25: dose reducing ulcer index by 25% vs control; for Protective action on the stomach (rat), ED25 / Protective action on the stomach (rat), ED50 / ED25 / ED50: logarithmic interpolation; for Protective action on the stomach (rat), ED50 / ED50: dose reducing ulcer index by 50% vs control; for ED25 / ED50: Rattus norvegicus, po. The format is in vivo. On the procedure:
The effect of the compounds according to the invention on the formation of gastric ulcers provoked by a pylorus ligature (4 hours, so-called Shay rat) and oral administration of 100 mg/kg acetylsalicylic acid and on the inhibition of gastric secretion in rats during 4 hours is shown in the following table:
as §1, with “index.” for “index. The reduction in the average ulcer index of each treated group compared with that of the control group (=100%) serves as a measure of the antiulcerogenic effect. The ED25 and the ED50 designate the doses which reduce the average ulcer index and the gastric secretion by 25 and 50%.”
The reduction in the average ulcer index of each treated group compared with that of the control group (=100%) serves as a measure of the antiulcerogenic effect. The ED25 and the ED50 designate the doses which reduce the average ulcer index and the gastric secretion by 25 and 50%.

Setting [3] is: dose reducing HCl secretion (sum 4 hours) by 50% vs control, logarithmic interpolation.

Turning to “4-Trifluoromethyl-2-[(4-methoxy-2-pyridylmethyl)sulfinyl]-(1H)-benzimidazole [Example 1]”, the “Gastric secretion (rat), inhibition in % of HCl-secretion” value in assay [1] (dose 0.1 mg/kg p.o.) is 5%; in assay [1] (dose 0.3 mg/kg p.o.), 9%; in assay [1] (dose 1.0 mg/kg p.o.) it was 15%; in assay [1] (dose 3.0 mg/kg p.o.), 22%. The “Gastric secretion (rat), ED25” value in assay [1] (logarithmic interpolation) is given as ≥ 3.0 mg/kg, p.o. The “Protective action on the stomach (rat), reduction in the ulcer index” value in assay [2] (dose 0.1 mg/kg p.o.) is recorded as “+1%”; in assay [2] (dose 0.3 mg/kg p.o.), 12%; in assay [2] (dose 1.0 mg/kg p.o.) it was 27%; in assay [2] (dose 3.0 mg/kg p.o.), 58%. In addition, the “Protective action on the stomach (rat), ED25” value in assay [2] was 0.9 mg/kg, p.o. In addition, the “Protective action on the stomach (rat), ED50” value in assay [2] was 2.3 mg/kg, p.o.

“5-Trifluoromethyl-2-[(4-methoxy-3,5-dimethyl-2-pyridylmethyl)thio]-(1H)-benzimidazole [Example 8]”: the results for the “Gastric secretion (rat), inhibition in % of HCl-secretion” value in assay [1] (dose 1.0 mg/kg p.o.) and in assay [1] (dose 3.0 mg/kg p.o.) were 12% and 50%, respectively. Moreover, the “Gastric secretion (rat), ED25” value in assay [1] (logarithmic interpolation) was 1.5 mg/kg, p.o. Moreover, the “Gastric secretion (rat), ED50” value in assay [1] (setting [3]) was 3.0 mg/kg, p.o. Further, the “Protective action on the stomach (rat), reduction in the ulcer index” value in assay [2] (dose 1.0 mg/kg p.o.) is recorded as 50%; in assay [2] (dose 3.0 mg/kg p.o.) it was 63%. The “Protective action on the stomach (rat), ED25” value in assay [2] is < 1.0 mg/kg, p.o. Besides, the “Protective action on the stomach (rat), ED50” value in assay [2] was 1.0 mg/kg, p.o.

As for `COc1ccnc(C[S+]([O-])c2nc3cc(C(F)(F)F)ccc3[nH]2)c1` (stereo not drawn) [Serial No. 2, 5-Trifluoromethyl-2-[(4-methoxy-2-pyridylmethyl)sulfinyl]-(1H)-benzimidazole], the ED25 in assay [1] (logarithmic interpolation) was 0.35 mg/kg; in assay [2] it was 0.24 mg/kg. Also, the ED50 (commonly the midpoint of the dose-response relation) in assay [1] (setting [3]) worked out at 0.75 mg/kg; in assay [2] it was 0.45 mg/kg. Moreover, the “Gastric secretion (rat), inhibition in % of HCl-secretion” value in assay [1] (dose 0.1 mg/kg p.o.) amounted to 0%; in assay [1] (dose 0.3 mg/kg p.o.) it was 18%; in assay [1] (dose 1.0 mg/kg p.o.), 60%; in assay [1] (dose 3.0 mg/kg p.o.), 84%. Moreover, the “Protective action on the stomach (rat), reduction in the ulcer index” value in assay [2] (dose 0.1 mg/kg p.o.) came out at 6%; in assay [2] (dose 0.3 mg/kg p.o.), 29%; in assay [2] (dose 1.0 mg/kg p.o.), 88%; in assay [2] (dose 3.0 mg/kg p.o.), 100%.

In the case of `COc1ccnc(C[S+]([O-])c2nc3cc(C(F)(F)F)ccc3[nH]2)c1C` (stereo not drawn) [Serial No. 3, 5-Trifluoromethyl-2-[(4-methoxy-3-methyl-2-pyridylmethyl)sulfinyl]-(1H)--benzimidazole], the ED25 in assay [1] (logarithmic interpolation) was below 0.3 mg/kg; in assay [2], 0.3 mg/kg. For the same molecule, the ED50 amounted to 0.4 mg/kg in assay [1] (setting [3]) and 0.45 mg/kg in assay [2]. For the same molecule, the “Gastric secretion (rat), inhibition in % of HCl-secretion” value was 40% in assay [1] (dose 0.3 mg/kg p.o.), 88% in assay [1] (dose 1.0 mg/kg p.o.) and 92% in assay [1] (dose 10.0 mg/kg p.o.). The “Protective action on the stomach (rat), reduction in the ulcer index” value in assay [2] (dose 0.3 mg/kg p.o.) was 25%; in assay [2] (dose 1.0 mg/kg p.o.), 98%; in assay [2] (dose 10.0 mg/kg p.o.) it was 100%.

`COc1c(C)cnc(C[S+]([O-])c2nc3cc(C(F)(F)F)ccc3[nH]2)c1C` (stereo not drawn) [Serial No. 4, 5-Trifluoromethyl-2-[(4-methoxy-3,5-dimethyl-2-pyridylmethyl)sulfinyl]-(1H)-benzimidazole]: the ED25 in assay [1] (logarithmic interpolation) came out at 0.48 mg/kg; in assay [2] it was 0.24 mg/kg. The median effective dose (ED50) is 1 mg/kg in assay [1] (setting [3]) and 0.55 mg/kg in assay [2]. Further, the “Gastric secretion (rat), inhibition in % of HCl-secretion” value is on record as “+5%” in assay [1] (dose 0.1 mg/kg p.o.), 10% in assay [1] (dose 0.3 mg/kg p.o.), 50% in assay [1] (dose 1.0 mg/kg p.o.) and 75% in assay [1] (dose 3.0 mg/kg p.o.). Besides, the “Protective action on the stomach (rat), reduction in the ulcer index” value is on record as 1% in assay [2] (dose 0.1 mg/kg p.o.), 30% in assay [2] (dose 0.3 mg/kg p.o.), 69% in assay [2] (dose 1.0 mg/kg p.o.) and 89% in assay [2] (dose 3.0 mg/kg p.o.).

For `COc1ccnc(CSc2nc3cc(C(F)(F)F)ccc3[nH]2)c1` [Serial No. 6, 5-Trifluoromethyl-2-[(4-methoxy-2-pyridylmethyl)thio]-(1H)-benzimidazole], the figures for the ED25 in assay [1] (logarithmic interpolation) and in assay [2] were 1.2 mg/kg and around 1 mg/kg, respectively. For the same molecule, the 50% effective dose (ED50) is 2 mg/kg in assay [1] (setting [3]) and 1.4 mg/kg in assay [2]. Besides, the “Gastric secretion (rat), inhibition in % of HCl-secretion” value is reported as 15% in assay [1] (dose 1.0 mg/kg p.o.) and 70% in assay [1] (dose 3.0 mg/kg p.o.). Also, the “Protective action on the stomach (rat), reduction in the ulcer index” value in assay [2] (dose 1.0 mg/kg p.o.) stood at 27%; in assay [2] (dose 3.0 mg/kg p.o.), 97%.

As for `COc1ccnc(CSc2nc3cc(C(F)(F)F)ccc3[nH]2)c1C` [Serial No. 7, 5-Trifluoromethyl-2-[(4-methoxy-3-methyl-2-pyridylmethyl)thio]-(1H)-benzimidazole], the figures for the ED25 in assay [1] (logarithmic interpolation) and in assay [2] were 0.3 mg/kg and at most 0.3 mg/kg, respectively. The ED50 in assay [1] (setting [3]) and in assay [2] was 0.5 mg/kg throughout. For the same molecule, the “Gastric secretion (rat), inhibition in % of HCl-secretion” value worked out at 26% in assay [1] (dose 0.3 mg/kg p.o.) and 85% in assay [1] (dose 1.0 mg/kg p.o.). In addition, the “Protective action on the stomach (rat), reduction in the ulcer index” value in assay [2] (dose 0.3 mg/kg p.o.) is listed as 30%; in assay [2] (dose 1.0 mg/kg p.o.), 94%.
